According to patent US9611277B2 (Janssen Pharmaceutica NV, priority 2013, dated 2017):
Read-outs that look alike come from different tables or passages of the source.

How the values were obtained:
[1] = molecular target: rat orexin 1 receptor (Rattus norvegicus, UniProt P56718); assay: Rat orexin 1 receptor radioligand binding; settings: read-out: rOX1 Ki
Method: (§1) Data are analyzed using pc-Sandy macro and graphed on Graphpad Prism 5. For analysis, each concentration point is averaged from triplicate values and the averaged values are plotted on Graphpad Prism. The IC50 was determined by applying the following equation (GraphPad Prism 5.0, SanDiego) for one site competition where X=log (concentration) and Y=specific binding. Top denotes the total [^3H]-(1-(5-(2-fluoro-phenyl)-2-methyl-thiazol-4-yl)-1-((S)-2-(5-phenyl-(1,3,4)oxadiazol-2-ylmethyl)-pyrrolidin-1-yl)-methanone) binding, bottom denotes the nonspecific [^3H]-(1-(5-(2-fluoro-phenyl)-2-methyl-thiazol-4-yl)-1-((S)-2-(5-phenyl-(1,3,4)oxadiazol-2-ylmethyl)-pyrrolidin-1-yl)-methanone) binding. Graphpad Prism calculates Ki value from IC50 and the pre-determined Kd values for [^3H]-(1-(5-(2-fluoro-phenyl)-2-methyl-thiazol-4-yl)-1-((S)-2-(5-phenyl-(1,3,4)oxadiazol-2-ylmethyl)-pyrrolidin-1-yl)-methanone) and [3H]-EMPA. The Ki for each compound is then uploaded into 3DX. Each run comprises individual compounds in triplicate. The data in Table 1 and Table 2 represent averages from between 2-20 runs
(§2) Rat and Human Orexin 1 Receptor Radioligand Binding Studies
(§3) After centrifugation (2K×G, 5 min at 4° C.), the supernatant was aspirated and the pellets frozen and stored at −80° C. […] Each cell pellet from a 15 cm plate was resuspended in 10 mL, stored on ice, and homogenized for 45 sec prior to addition to the reactions. […] The final concentration of DMSO in the reactions is equal to or less than 0.1%. Total and nonspecific binding was determined in the absence and presence of 10 μM almorexant. The total volume of each reaction is 200 μL (20 μL of diluted compounds, 80 μL of [^3H]-(1-(5-(2-fluoro-phenyl)-2-methyl-thiazol-4-yl)-1-((S)-2-(5-phenyl-(1,3,4)oxadiazol-2-ylmethyl)-pyrrolidin-1-yl)-methanone) diluted in PBS and 100 μL of the cell suspension). […] The plates were washed 3 times by aspirating 30 ml PBS through the plates. Plates were dried in 55° C. oven for 60 min, scintillation fluid was added, and the radioactivity was counted on a Topcount (Packard).

[2] = molecular target: human orexin 1 receptor (Homo sapiens, UniProt O43613); assay: Human orexin 1 receptor radioligand binding; settings: read-out: hOX1 Ki
Method: as §1, §2, §3

[3] = molecular target: human orexin 2 receptor (Homo sapiens (Human), UniProt O43614); assay: Human orexin 2 receptor radioligand binding; settings: read-out: hOX2 Ki
human orexin 2 receptor, sequence (O43614 whole entry): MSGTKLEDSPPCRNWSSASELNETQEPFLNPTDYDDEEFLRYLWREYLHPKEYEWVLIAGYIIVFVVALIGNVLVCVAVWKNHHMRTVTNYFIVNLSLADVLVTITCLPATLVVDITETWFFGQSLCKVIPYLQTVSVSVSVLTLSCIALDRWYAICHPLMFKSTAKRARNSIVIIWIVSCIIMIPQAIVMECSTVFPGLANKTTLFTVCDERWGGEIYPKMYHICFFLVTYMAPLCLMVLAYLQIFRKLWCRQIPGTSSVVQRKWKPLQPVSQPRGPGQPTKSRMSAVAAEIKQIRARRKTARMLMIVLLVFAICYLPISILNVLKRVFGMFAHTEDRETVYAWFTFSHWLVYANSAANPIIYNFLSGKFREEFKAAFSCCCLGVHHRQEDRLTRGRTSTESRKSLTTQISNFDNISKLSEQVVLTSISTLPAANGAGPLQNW
Method: as §1
Human Orexin 2 Receptor Radioligand Binding Studies
as §3, with “HEK293 stably expressing human orexin 2 receptor (Genebank accession number NM_001526) were grown to confluency in DMEM (Hyclone, cat # SH30022), 10% FBS, 1× Pen/Strep, 1× NaPyruvate, 10 mM HEPES, 600 ug/ml G418 media on 150 cm^2 tissue culture plates, washed with 5 mM EDTA in PBS (HyClone Dulbecco's Phosphate Buffered Saline 1× with Calcium and Magnesium, Cat # SH30264.01, hereafter referred to simply as PBS) and scraped into 50 ml tubes. After” for “After”, “sec just” for “sec”, “[^3H]-EMPA” for “[^3H]-(1-(5-(2-fluoro-phenyl)-2-methyl-thiazol-4-yl)-1-((S)-2-(5-phenyl-(1,3,4)oxadiazol-2-ylmethyl)-pyrrolidin-1-yl)-methanone)”

[4] = rat orexin 1 receptor, averages of 2-20 runs
[5] = human orexin 1 receptor, averages of 2-20 runs
[6] = human orexin 2 receptor, averages of 2-20 runs

Structure (SMILES)	Ki [1, 4] [nM]	Ki [2, 5] [nM]	Ki [3, 6] [nM]	Ki [1] [nM]	Ki [2] [nM]	Ki [3] [nM]
Cc1nc(C(=O)N2CC3CC(Oc4ccc(C(F)(F)F)cn4)C2C3)c(-c2ccc(F)cc2)s1 (racemic) [Example 5, (R/S)-(5-(4-fluorophenyl)-2-methylthiazol-4-yl)(6-((5-(trifluoromethyl)pyridin-2-yl)oxy)-2-azabicyclo[2.2.1]heptan-2-yl)methanone]	25	18	779			
Cc1cccc(C(=O)N2CC3CCC2C(Nc2cnc(C(F)(F)F)cn2)C3)c1-n1nccn1 (racemic) [Example 256, (R/S)-(3-methyl-2-(2H-1,2,3-triazol-2-yl)phenyl)(6-((5-(trifluoromethyl)pyrazin-2-yl)amino)-2-azabicyclo[2.2.2]octan-2-yl)methanone]	20	10	348			
O=C(c1cccc(F)c1-c1ncccn1)N1CC2CCC1C(Nc1cnc(C(F)(F)F)cn1)C2 (racemic) [Example 257, (R/S)-(3-fluoro-2-(pyrimidin-2-yl)phenyl)(6-((5-(trifluoromethyl)pyrazin-2-yl)amino)-2-azabicyclo[2.2.2]octan-2-yl)methanone]	21	24	741			
O=C(c1ccc(F)cc1-c1ncccn1)N1CC2CCC1C(Nc1cnc(C(F)(F)F)cn1)C2 (racemic) [Example 258, (R/S)-(4-fluoro-2-(pyrimidin-2-yl)phenyl)(6-((5-(trifluoromethyl)pyrazin-2-yl)amino)-2-azabicyclo[2.2.2]octan-2-yl)methanone]	26	17	2600			
O=C(c1cccc(F)c1-c1ncccn1)N1C[C@H]2C[C@@H](Oc3ccc(Br)cn3)[C@@H]1C2 [Example 48, ((1S,4R,6R)-6-((5-bromopyridin-2-yl)oxy)-2-azabicyclo[2.2.1]heptan-2-yl)(3-fluoro-2-(pyrimidin-2-yl)phenyl)methanone]	4	5	903			
O=C(c1ccccc1-n1nccn1)N1C[C@H]2C[C@@H](Oc3ccc(Br)cn3)[C@@H]1C2 [Example 49, (2-(2H-1,2,3-triazol-2-yl)phenyl)((1S,4R,6R)-6-((5-bromopyridin-2-yl)oxy)-2-azabicyclo[2.2.1]heptan-2-yl)methanone]		5	443			
Cc1ccc(-n2nccn2)c(C(=O)N2C[C@H]3C[C@@H](Oc4ccc(Br)cn4)[C@@H]2C3)n1 [Example 50, ((1S,4R,6R)-6-((5-bromopyridin-2-yl)oxy)-2-azabicyclo[2.2.1]heptan-2-yl)(6-methyl-3-(2H-1,2,3-triazol-2-yl)pyridin-2-yl)methanone]		10	578			
O=C(c1cc(F)ccc1-c1ncccn1)N1C[C@H]2C[C@@H](Nc3ccc(C(F)(F)F)cn3)[C@@H]1C2 [Example 58, (5-fluoro-2-(pyrimidin-2-yl)phenyl)((1S,4S,6R)-6-((5-(trifluoromethyl)pyridin-2-yl)amino)-2-azabicyclo[2.2.1]heptan-2-yl)methanone]	5	3	193			
O=C(c1ccccc1-n1nccn1)N1C[C@H]2C[C@@H](Nc3cnc(C(F)(F)F)cn3)[C@@H]1C2 [Example 59, (2-(2H-1,2,3-triazol-2-yl)phenyl)((1S,4S,6R)-6-((5-(trifluoromethyl)pyrazin-2-yl)amino)-2-azabicyclo[2.2.1]heptan-2-yl)methanone]		7	192			
O=C(c1ccccc1-n1nccn1)N1C[C@H]2C[C@@H](Nc3ncc(C(F)(F)F)cn3)[C@@H]1C2 [Example 60, (2-(2H-1,2,3-triazol-2-yl)phenyl)((1S,4S,6R)-6-((5-(trifluoromethyl)pyrimidin-2-yl)amino)-2-azabicyclo[2.2.1]heptan-2-yl)methanone]	20	12	617			
Cc1ccc(-n2nccn2)c(C(=O)N2C[C@H]3C[C@@H](Nc4cnc(C(F)(F)F)cn4)[C@@H]2C3)n1 [Example 61, (6-methyl-3-(2H-1,2,3-triazol-2-yl)pyridin-2-yl)((1S,4S,6R)-6-((5-(trifluoromethyl)pyrazin-2-yl)amino)-2-azabicyclo[2.2.1]heptan-2-yl)methanone]	15	19	248			
Cc1ccc(-n2nccn2)c(C(=O)N2C[C@H]3C[C@@H](Nc4ncc(C(F)(F)F)cn4)[C@@H]2C3)n1 [Example 62, (6-methyl-3-(2H-1,2,3-triazol-2-yl)pyridin-2-yl)((1S,4S,6R)-6-((5-(trifluoromethyl)pyrimidin-2-yl)amino)-2-azabicyclo[2.2.1]heptan-2-yl)methanone]	28	19	569			
O=C(c1cccc(F)c1-c1ncccn1)N1C[C@H]2C[C@@H](Nc3ccc(C(F)(F)F)cn3)[C@@H]1C2 [Example 66, (3-fluoro-2-(pyrimidin-2-yl)phenyl)((1S,4S,6R)-6-((5-(trifluoromethyl)pyridin-2-yl)amino)-2-azabicyclo[2.2.1]heptan-2-yl)methanone]	2	5	181			
O=C(c1cccc(F)c1-c1ncccn1)N1C[C@H]2C[C@@H](Nc3cnc(C(F)(F)F)cn3)[C@@H]1C2 [Example 67, (3-fluoro-2-(pyrimidin-2-yl)phenyl)((1S,4S,6R)-6-((5-(trifluoromethyl)pyrazin-2-yl)amino)-2-azabicyclo[2.2.1]heptan-2-yl)methanone]	7	7	264			
O=C(c1cccc(F)c1-c1ncccn1)N1C[C@H]2C[C@@H](Nc3ncc(C(F)(F)F)cn3)[C@@H]1C2 [Example 68, (3-fluoro-2-(pyrimidin-2-yl)phenyl)((1S,4S,6R)-6-((5-(trifluoromethyl)pyrimidin-2-yl)amino)-2-azabicyclo[2.2.1]heptan-2-yl)methanone]	7	8	612			
O=C(c1cccc(F)c1-c1ncccn1)N1C[C@@H]2CC[C@H]1[C@H](Oc1cnc(C(F)(F)F)cn1)C2 [Example 74, (3-fluoro-2-(pyrimidin-2-yl)phenyl)((1S,4R,6R)-6-((5-(trifluoromethyl)pyrazin-2-yl)oxy)-2-azabicyclo[2.2.2]octan-2-yl)methanone]	16	16	1800			
Cc1ccc(-n2nccn2)c(C(=O)N2C[C@@H]3CC[C@H]2[C@H](Oc2ccc(C(F)(F)F)cn2)C3)n1 [Example 76, (6-methyl-3-(2H-1,2,3-triazol-2-yl)pyridin-2-yl)((1S,4R,6R)-6-((5-(trifluoromethyl)pyridin-2-yl)oxy)-2-azabicyclo[2.2.2]octan-2-yl)methanone]				4	3	211
Cc1ccc(-n2nccn2)c(C(=O)N2C[C@@H]3CC[C@H]2[C@H](Oc2cnc(C(F)(F)F)cn2)C3)n1 [Example 77, (6-methyl-3-(2H-1,2,3-triazol-2-yl)pyridin-2-yl)((1S,4R,6R)-6-((5-(trifluoromethyl)pyrazin-2-yl)oxy)-2-azabicyclo[2.2.2]octan-2-yl)methanone]	9	13	1700			
O=C(c1cccnc1-n1nccn1)N1C[C@H]2C[C@@H](Oc3ccc(C(F)(F)F)cn3)[C@@H]1C2 [Example 87, (2-(2H-1,2,3-triazol-2-yl)pyridin-3-yl)((1S,4R,6R)-6-((5-(trifluoromethyl)pyridin-2-yl)oxy)-2-azabicyclo[2.2.1]heptan-2-yl)methanone]	156	211	> 10000			
